Assays:
[1] = system: chronic model of reflux esophagitis in rats; test: Chronic acid reflux esophagitis in rat (forestomach ligation and pyloric stenosis); format: in vivo; settings: 15 days; for Occurrence of Esophagitis: animals affected/surviving
Excerpt: The method was according to Omura N., et al. (Scand. J gastroenterol. 1999; 34:948-953) with slight modifications.
Male Wistar rats, 10 weeks old, were kept in controlled animal room 1 week prior to use and fed with standard diet. A day before the experiment rats were deprived of food but allowed free access to water.
This model consists of gastric outlet obstruction obtained by ligation of forestomach and pyloric stenosis. Rats were operated under air/halothane anaesthesia; after opening the abdomen with a median incision, the transitional region between forestomach and the glandular portion was ligated and then the forestomach was blocked with other two ligations. Pyloric stenosis were obtained by wrapping a duodenum near the pylorus with a piece (about 2 mm) of a catheter (3.5 mm inner diameter) as a ring. The ring was closed by thermocautery and fixed to the pylorus with a nylon thread. The abdomen was closed by suturing.
After the operation the rats (10 animals per group) were deprived of diet for 48 h but had free access to water.
Drugs were administered once a day, starting on day zero, by subcutaneous injection. During the experiment body weight as well as the mortality were recorded.
The animals were killed 15 days later by overdose of ether inhalation. The abdomen was opened and the esophagus excised and placed on a cork plate. The presence and extension of esophagitis sites was evaluated by macroscopic observation. Each site of esophagitis was measured (mm of length×mm of width). Data were expressed as mm^2 of esophagitis area (mean area group).

[2] = system: acute reflux esophagitis in pylorus-ligated rats; test: Acute reflux esophagitis in pylorus-ligated rats (macroscopic lesion index); format: in vivo, rat; set-up: key to Average Score lesions: lesion index 0 = no lesion to 6 = hemorrhage >40 mm or perforation; settings: for % Effect vs. control / Average Score lesions: 3 h after ligation; for ED50: Rattus norvegicus, intraduodenal, drug administered separately, intraduodenally, from dose-response regression line, read-out: ED50 (dose which reduces of 50% the esophagus lesions)
Experimental: Male rats of 175-200 g body weight were fasted for 24 hours prior the experiment. Water was allowed ad libitum. Under ether anaesthesia, the abdomen was incised along the midline, and both pylorus and limiting ridge (transitional region between the forestomach and corpus) were simultaneously ligated. Consequently, the total capacity of the stomach to hold gastric juice was greatly diminished, resulting in reflux of gastric juice into the esophagus. Following ligation of pylorus and limiting ridge, the test compounds were given intraduodenally (5 ml/kg), and the abdomen was closed by suturing. After 3 hours, rats were killed by ether overdose and the gastroesophageal portion was excised. The lesion in the thoracic esophagus was scored macroscopically, using a lesion index according to the following criteria: no lesion as 0; oedema as 1; reddening as 2; the length of hemorrhagic area <20 mm as 3; the length of hemorrhagic area 20-30 mm as 4; the length of hemorrhagic area 30-40 mm as 5; the length of hemorrhagic area >40 mm or perforation as 6.
The doses of the tested compounds which reduce of 50% the esophagus lesions (ED50) were calculated from the dose-response regression line.

[3] = Itriglumide 10 mg/kg s.c. once a day
[4] = Itriglumide 2.5 mg/kg intraduodenally
[5] = Itriglumide 5.0 mg/kg intraduodenally
[6] = Itriglumide 10 mg/kg intraduodenally
[7] = Itriglumide 20 mg/kg intraduodenally
[8] = Omeprazole 0.5 mg/kg s.c. once a day
[9] = Omeprazole 1 mg/kg s.c. once a day
[10] = Omeprazole 2 mg/kg s.c. once a day
[11] = Omeprazole 0.1 mg/kg intraduodenally
[12] = Omeprazole 0.3 mg/kg intraduodenally
[13] = Omeprazole 1.0 mg/kg intraduodenally
[14] = Omeprazole 3.0 mg/kg intraduodenally

**Q.** How did the “% Protection vs. control” value [1, 3] turn out when `Cc1cc(C)c(NC(=O)C[C@H](CC(=O)O)c2cccc3ccccc23)c(C(=O)N2CCC3(CCCC3)CC2)c1` [Itriglumide, (R)-1-napthalenepropanoic acid-β[2[(2-(8-azaspiro[4.5.]dec-8-ylcarbonyl)4,6-dimethylphenyl]amino]-2-oxoethyl]] was run?
**A.** The value was 42.1%.

**Q.** What about the “Survival Rate (%)” value [1, 3] of the same compound?
**A.** Its value is 90%.

**Q.** And the “Total average size of ulcers (mm^2)” value [1, 3]?
**A.** Its value is 33 mm^2.

**Q.** And the “Occurrence of Esophagitis” value [1, 3]?
**A.** The value was 4/9.

**Q.** What about the “% Effect vs. control” value [2, 4] of the same compound?
**A.** Its value is 0%.

**Q.** What about the “Average Score lesions” value [2, 4] of the same compound?
**A.** The value was 5.2.

**Q.** And the “% Effect vs. control” value [2, 5]?
**A.** Its value is 27.5%.

**Q.** And the “Average Score lesions” value [2, 5]?
**A.** Its value is 3.7.

**Q.** And the “% Effect vs. control” value [2, 6]?
**A.** The value was 51.0%.

**Q.** And the “Average Score lesions” value [2, 6]?
**A.** Its value is 2.5.

**Q.** What about the “% Effect vs. control” value [2, 7] of the same compound?
**A.** The value was 82.3%.

**Q.** What about the “Average Score lesions” value [2, 7] of the same compound?
**A.** The value was 0.9.

**Q.** And the ED50 [2]?
**A.** Its ED50 is 9.1 mg/kg.

**Q.** With `COc1ccc2[nH]c([S+]([O-])Cc3ncc(C)c(OC)c3C)nc2c1` (centres unmarked) [Omeprazole] as the compound, how does the “% Protection vs. control” value [1, 8] read?
**A.** The value was 17.5%.

**Q.** And the “Survival Rate (%)” value [1, 8]?
**A.** The value was 80%.

**Q.** And the “Total average size of ulcers (mm^2)” value [1, 8]?
**A.** Its value is 47 mm^2.

**Q.** What about the “Occurrence of Esophagitis” value [1, 8] of the same compound?
**A.** Its value is 6/8.

**Q.** What about the “% Protection vs. control” value [1, 9] of the same compound?
**A.** The value was 28.0%.

**Q.** What about the “Survival Rate (%)” value [1, 9] of the same compound?
**A.** The value was 90%.

**Q.** And the “Total average size of ulcers (mm^2)” value [1, 9]?
**A.** Its value is 41 mm^2.

**Q.** What about the “Occurrence of Esophagitis” value [1, 9] of the same compound?
**A.** Its value is 6/9.

**Q.** And the “% Protection vs. control” value [1, 10]?
**A.** The value was 49.1%.

**Q.** What about the “Survival Rate (%)” value [1, 10] of the same compound?
**A.** The value was 90%.

**Q.** And the “Total average size of ulcers (mm^2)” value [1, 10]?
**A.** The value was 29 mm^2.

**Q.** And the “Occurrence of Esophagitis” value [1, 10]?
**A.** Its value is 3/9.

**Q.** And the ED50 ([1]; Rattus norvegicus, sc, 360 h, Omeprazole alone, s.c. once a day)?
**A.** The ED50 was 2.2 mg/kg.

**Q.** And the “% Effect vs. control” value [2, 11]?
**A.** Its value is 3.4%.

**Q.** And the “Average Score lesions” value [2, 11]?
**A.** The value was 5.6.

**Q.** What about the “% Effect vs. control” value [2, 12] of the same compound?
**A.** Its value is 0%.

**Q.** What about the “Average Score lesions” value [2, 12] of the same compound?
**A.** The value was 5.8.

**Q.** What about the “% Effect vs. control” value [2, 13] of the same compound?
**A.** The value was 17.2%.

**Q.** And the “Average Score lesions” value [2, 13]?
**A.** The value was 4.8.

**Q.** What about the “% Effect vs. control” value [2, 14] of the same compound?
**A.** Its value is 53.4%.

**Q.** And the “Average Score lesions” value [2, 14]?
**A.** The value was 2.7.

**Q.** And the ED50 [2]?
**A.** Its ED50 is 4.9 mg/kg.
